In PubChem BioAssay AID1117361 (Southern Research Institute, 2015) one finds IC50 data, which are given here for 71 compounds.

In general, IC50 refers to the concentration that gives 50% inhibition.

Sequence of Protein Tat (Human immunodeficiency virus type 1 group M subtype B (isolate HXB2)) (P04608 whole entry, looked up): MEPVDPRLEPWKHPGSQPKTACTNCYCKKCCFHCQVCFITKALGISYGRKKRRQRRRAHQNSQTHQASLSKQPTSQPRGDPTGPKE

This experiment addresses Protein Tat (Human immunodeficiency virus type 1 group M subtype B (isolate HXB2)) (UniProt P04608). Description: HIV-1 Tat–TAR interaction blockers – biochemical, fluorescence polarization, FAM-labeled TAR RNA, counter-screen for Vif-APOBEC3G degradation inhibitor project, dose response (AID 1117361). Particulars: Tat-TAR RNA binding. In general terms: Fluorescence polarisation rises when a labelled molecule tumbles more slowly, as on binding a larger partner.
Take `CN(C)c1ccc(Cc2cc3c(O)ccc(O)c3cc(Cc3ccc(N(C)C)cc3)c2=O)cc1`: the IC50 was 85.4 µM.

For `O=C(O)CCc1ccc(-c2cccs2)n1-c1ccc(C(=O)O)cc1`, the IC50 was 45.6 µM. Consider `Oc1cccc(C=NCc2ccccc2)c1O`, for which the IC50 is 6.47 µM.

Consider `COc1cccc(-n2c(Cc3cc(=O)[nH]c(=O)[nH]3)nnc2SCC(=O)NC2CCCC2)c1`, for which the IC50 is 10.1 µM.

Take `CCN(CC)Cc1cc(O)c(CN(CC)CC)cc1O`: the IC50 is 4.37 µM. Turning to `O=C(O)c1c2c(nc3ccc(Cl)cc13)CCC2`, the IC50 was 13.2 µM. With `N#Cc1c(N)sc(=S)c2c1CCCCC2`, the IC50 is 1.84 µM.

For the compound `O=C1NC(=O)N(Cc2ccccc2)C(=O)/C1=C\C=C\c1ccco1`, the IC50 is 30.9 µM. Take `COc1cc(OC)c2c(O)c3c(c(-c4c5c(c(O)c6c(OC)cc(OC)cc46)CO[C@@H](C)[C@H]5O)c2c1)[C@H](O)[C@H](C)OC3`: the IC50 is 30.8 µM.

Take `COC/C=C/C1=CC2=CC(=O)C(C)(OC(=O)C3CCCC3)C(=O)C2=CO1` (stereo unspecified): the IC50 is 10.5 µM.

For the compound `CCOC(=O)C1CCN(C(=O)COc2ccc(S(=O)(=O)NC(C)C)cc2)CC1`, the IC50 is 81.8 µM.

Consider `O=C(CCCCCN1C(=O)CCC1=O)Nc1ccc(Cl)c(C(F)(F)F)c1`, for which the 50% inhibitory concentration (IC50) was 16.4 µM.

Consider `Nc1nc(-c2ccco2)c(-c2ccco2)s1`, for which the IC50 was 2.39 µM.

`O=C(Nc1nnc(C2CCCO2)s1)c1cccs1` (stereo unspecified): the IC50 was 98.8 µM. Regarding `O=C(NCc1ccccc1)c1ccc2nc(-c3ccco3)c(-c3ccco3)nc2c1`, the IC50 was 4.55 µM. In the case of `O=C(O)c1ccc(COc2c(F)c(F)c(F)c(F)c2F)o1`, the IC50 is 90.6 µM. Consider `COC(=O)COc1ccc(S(=O)(=O)Nc2cc(OC)ccc2OC)cc1`, for which the IC50 is 28.2 µM. The result for `O=C(Nc1ccc(Cl)cc1)Nc1ccc(N2CCC(C(F)(F)F)CC2)nc1` reads 32.5 µM.

Regarding `O=S(=O)(O)c1cc(O)c2c(O)c(N=Nc3cc(Cl)ccc3O)c(S(=O)(=O)O)cc2c1`, the IC50 is 15.9 µM. Then `O=C(NCCc1ccccc1)c1ccc2nc(-c3ccco3)c(-c3ccco3)nc2c1`, with 33.1 µM; and `O=C(OC1CCCCC1)c1ccc2c(c1)C1C=CCC1C(C(=O)O)N2` (stereo unspecified), with 2.26 µM; and `Cc1cc(C(=O)COC(=O)c2cc(O)c3ccccc3c2O)c(C)n1CC1CCCO1` (stereo unspecified), with 9.14 µM. For `O=c1oc(/C=C/c2ccco2)nc2sc3c(c12)CCC3`, the IC50 was 11.9 µM. The result for `COc1ccc(-n2c(C)cc(C(=O)CSc3nn4c(=O)c(C(C)(C)C)nnc4s3)c2C)cc1` reads 62.7 µM; that for `CC1CCCCC1NC(=O)COC(=O)c1c2c(nc3ccccc13)/C(=C/c1ccco1)CC2` (stereo unspecified), 7.58 µM; that for `CCOC(=O)C(=O)Cc1cccnn1`, 49.5 µM. Consider `NS(=O)(=O)c1ccc2c(c1)C1C=CCC1C(C1CC=CCC1)N2` (stereo unspecified), for which the IC50 is 9.98 µM. Consider `COC(=O)c1ccc(COc2ccccc2/C=C(\C#N)C(=O)Nc2c(C)cc(C)cc2C)cc1`, for which the IC50 was 46.2 µM. For `O=C1c2cccnc2C(Nc2ccccc2)N1Cc1ccco1` (stereo unspecified), the IC50 is 79.2 µM.

`COC(=O)CCCC(=O)Nc1c(F)c(F)c(F)c(F)c1F`: the concentration for half-maximal inhibition (IC50) is 78.2 µM. `c1cnc(N2CCN(c3cnccn3)CC2)nc1`: the IC50 was 71.9 µM. Turning to `Cc1ccc[n+](-c2[nH]c(=O)sc2/C=N/NC(=O)c2ccccc2[O-])c1`, the IC50 was 22.1 µM. As for `O=[N+]([O-])c1cc(CN2CCCC2)c2cccnc2c1O`, the IC50 was 8.94 µM. With `C=CCSC1=N/C(=C\C=C\c2ccco2)C(=O)S1`, the IC50 is 1.89 µM.

Take `CN1CCc2c(sc3c2c(NCc2ccco2)nc2nnnn23)C1`: the IC50 is 79.8 µM. As for `Cc1c(C(=O)O)cccc1-n1c(C)cc(/C=N/Nc2ccc([N+](=O)[O-])cn2)c1C`, the IC50 is 64 µM. For `O=C(CN1CCN(S(=O)(=O)c2ccc(Cl)s2)CC1)NCc1ccc(Cl)cc1`, the IC50 was 23.2 µM. Take `CC1(CCl)N([O-])C2=C(CCCC2)[N+]1=O` (stereo unspecified): the IC50 was 44.6 µM. The result for `CCc1cc(=O)n2[nH]c(C)c(-c3ccccc3OC)c2n1` reads 12.7 µM.

On to `CC(/C=C1\SC(=S)N(CCCC(=O)Nc2ccc(C(=O)O)c(O)c2)C1=O)=C\c1ccccc1`, for which the IC50 was 26 µM. For `O=C1NC(=O)C(=Cc2ccc(SC3CCCCC3)o2)C(=O)N1`, the IC50 is 30.9 µM. As for `Cc1nn(-c2ccccn2)c2c1C(=O)C(Br)CC2` (stereo unspecified), the IC50 was 8.82 µM.

As for `COc1ccc2[nH]c3c4c(ccc3c2c1)C(=O)C=CC4=O`, the IC50 is 24.7 µM.

Take `CN(C)[C@@H]1C(=O)C(C(=O)NCN2CCCC2)=C(O)[C@@]2(O)C(=O)C3=C(O)c4c(O)cccc4[C@@](C)(O)C3CC12` (stereo partly specified): the IC50 was 2.46 µM. Turning to `COC(=O)c1cnn2c(C(F)(F)F)cc(-c3ccco3)nc12`, the IC50 was 68.1 µM. On to `CCCOc1ccc(Cc2nn3c(=O)/c(=C/c4ccco4)sc3nc2=O)cc1`, for which the IC50 was 2.68 µM. `S=c1[nH]nc(-c2cccnc2)n1/N=C/C=C/c1ccco1`: the IC50 was 5.3 µM. Consider `CC(C)NC[C@@H](O)c1ccc(O)c(O)c1`, for which the IC50 is 5.21 µM. Take `O=c1c(O)cccc2cc(O)c(O)c(O)c12`: the IC50 is 3.96 µM. Then `CCCc1cc(=O)oc2cc(C)c(CN3CCCC3)c(O)c12`, with 16.9 µM. Then `O=C(CCN1C(=O)/C(=C/c2cccs2)SC1=S)NC1=NCCS1`, with 46 µM; and `O=C1C(Cl)=C(N2CCOCC2)C(=O)N1c1ccccc1`, with 16.6 µM.

Turning to `O=C(NCCCO)c1ccc2nc(-c3ccco3)c(-c3ccco3)nc2c1`, the IC50 is 3.58 µM.

On to `CCOC(=O)Cn1nnnc1C(C(C)C)N(Cc1cc2c(C)cc(C)cc2[nH]c1=O)C1CCCC1` (stereo unspecified), for which the IC50 is 67.6 µM.

For the compound `COC(=O)C1=C(C)N(Cc2ccccc2)C(=O)/C1=C\c1ccco1`, the IC50 was 79.7 µM.

For `COc1ccccc1NCCC(=O)OCC(=O)NCc1ccco1`, the IC50 was 58 µM. As to `CN1C(=O)/C(=C/c2ccco2)SC1=Nc1cccc(C(=O)O)c1`, the IC50 was 7.93 µM. As to `CCN(CC)C(=O)c1ccc(CS(=O)(=O)c2ccc(OC)cc2)o1`, the IC50 is 2.35 µM.

Consider `Cc1ccc(S(=O)(=O)N2CCC(C(=O)Nc3nnc(-c4ccco4)s3)CC2)cc1`, for which the IC50 is 51.1 µM.

As for `CC(C)c1ccc(/C=C/C(=O)N2CCc3ccccc3C2)cc1`, the IC50 is 33.7 µM. `O=c1[nH]nc(CNc2ccc(O)cc2)c2ccccc12`: the IC50 was 33.7 µM.

Turning to `c1coc(-c2nc(-c3ccco3)c(-c3ccco3)nc2-c2ccco2)c1`, the IC50 is 2.19 µM. `N=C1S/C(=C\c2ccco2)C(=O)N1c1ccc2c(c1)OCO2`: the IC50 is 18.4 µM. For the compound `CN(C)c1ccc(N2C(=O)CC(Nc3ccc(N4CCOCC4)cc3)C2=O)cc1` (stereo unspecified), the IC50 was 9.99 µM.

Consider `Cc1cccc(/C=C(\C(=O)O)c2ccc(S(=O)(=O)N3CCCC3)s2)c1`, for which the IC50 is 98 µM. Take `CN(C)c1ncc(C2=C(Cl)C(=O)C(N3CCCC3)=C(Cl)C2=O)s1`: the IC50 was 1.54 µM. `CN1CCC(N(C)C(=O)COc2ccccc2-c2ccccc2)CC1`: the IC50 was 63.7 µM. Then `c1cncc(-c2nnc3sc(-c4ccco4)nn23)c1`, with 64 µM; and `C=C(C)C(=O)Nc1cccc(C2=NOC3(C2)C[C@H](C(N)=O)N(C(=O)COc2ccc(Cl)cc2)C3)c1` (stereo partly specified), with 17.3 µM; and `O=C(O)c1ccc(Cl)c2c1C1C=CCC1C(c1ccccn1)N2` (stereo unspecified), with 2.81 µM. `O=C(CCN1CCN(c2ccccc2)CC1)N/N=C/c1ccc(O)c(O)c1O`: the IC50 is 4.87 µM.
